One may read the IC50 as the concentration that inhibits the measured activity by half.

Our source for the IC50 and ED50 values is patent US4897490A, “Antihypercholesterolemic tetrazole compounds” (Bristol-Meyers Company, priority 1988, dated 1990).

Assay [1] addresses T1, rat liver HMG-CoA reductase (Rattus norvegicus, UniProt P51639).
T1 construct: from tissue; host or cells: rat liver microsomes
T1 sequence (P51639 1-887): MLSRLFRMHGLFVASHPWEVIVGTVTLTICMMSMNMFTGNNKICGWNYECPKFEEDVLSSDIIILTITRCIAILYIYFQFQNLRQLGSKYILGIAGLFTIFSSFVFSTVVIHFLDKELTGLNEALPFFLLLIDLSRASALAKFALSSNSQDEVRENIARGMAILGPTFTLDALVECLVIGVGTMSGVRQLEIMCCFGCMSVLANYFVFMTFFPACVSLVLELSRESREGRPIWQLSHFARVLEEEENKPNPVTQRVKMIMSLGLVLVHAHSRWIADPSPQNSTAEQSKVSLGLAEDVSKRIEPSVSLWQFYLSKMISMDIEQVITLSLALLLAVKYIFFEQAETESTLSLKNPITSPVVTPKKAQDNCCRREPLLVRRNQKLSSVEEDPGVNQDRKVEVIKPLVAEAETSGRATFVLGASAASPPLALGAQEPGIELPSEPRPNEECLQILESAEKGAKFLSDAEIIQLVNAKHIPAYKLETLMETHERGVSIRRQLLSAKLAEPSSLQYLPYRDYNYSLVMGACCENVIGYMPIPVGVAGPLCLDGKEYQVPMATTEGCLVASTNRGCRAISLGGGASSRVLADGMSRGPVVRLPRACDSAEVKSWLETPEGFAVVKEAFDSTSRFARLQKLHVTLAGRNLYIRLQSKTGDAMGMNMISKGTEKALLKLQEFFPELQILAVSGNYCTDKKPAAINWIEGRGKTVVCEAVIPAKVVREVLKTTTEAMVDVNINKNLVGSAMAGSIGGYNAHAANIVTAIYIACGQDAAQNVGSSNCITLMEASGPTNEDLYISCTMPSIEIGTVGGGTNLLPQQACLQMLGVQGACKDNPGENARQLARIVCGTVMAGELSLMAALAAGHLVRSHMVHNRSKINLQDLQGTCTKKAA
The assay is described as follows: Test A: In Vitro Inhibition of Microsomal HMG-CoA Reductase. Type of assay: biochemical. To be noted: microsomal rat liver enzyme; [3-14C]-HMG-CoA 0.33 mM, NADPH 3.0 mM; pH 7.2. How it is done: Test A: In Vitro Inhibition of Microsomal HMG-CoA Reductase:
The intact, fully activated microsomal form of rat liver HMG-CoA reductase (subunit MW ca 100,000 daltons) was prepared as described by Parker, et al., Biochem. Biophys. Res. Commun., 125, 629-635 (1984), and used as the source of enzyme for assays. HMG-CoA reductase activity was determined essentially by the method of Shapiro, et al., Biochem. Biophys. Acta., 370, 369-377 (1974), with modifications as described by Ingebritsen and Gibson, Meth. Enzymol. 71, 486-497 (1981) with the exception that the internal standard ^3 H-mevalonolactone is added after termination of the assay. In this procedure, the enzyme is assayed by measuring the formation of product, ^14 C-mevalonate, from the substrate, [3-^14 C]-HMG-CoA, in the presence of NADPH. The ^14 C-mevalonate is converted to its lactone and isolated by silica thin-layer chromatography (Whatman LK5D, developed in 50:50 benzene:acetone) in the presence of ^3 H-mevalonolactone as an internal standard. Assays were conducted under conditions in which product formation was linear with respect to time and enzyme concentration.
To measure reductase inhibition, test compounds dissolved in water or dimethylsulfoxide and diluted in buffer A (50 mM imidazole-HCl, 250 mM NaCl, 1 mM EDTA, 1 mM EGTA, 5 mM DTT, 20 μM leupeptin, pH=7.2) were incubated with aliquots of microsomes (80-160 μg protein in buffer A) followed by addition of d,1-[3-^14 C]-HMG-CoA (0.33 mM, 2.0 dpm/picomole) and NADPH (3.0 mM). The 50 percent inhibitory concentration (IC50) for each compound in Table 1 was calculated from the linear regression line of the percent decrease (from control) in enzyme activity vs. log concentration of inhibitor, determined using at least 4 dilutions of each test compound assayed in duplicate.

Assay [2] relates to de novo biosynthesis of cholesterol. The assay is described as follows: Test C: In Vivo Acute Cholesterol Biosynthesis Inhibition in Rats. Conditions: Rattus norvegicus, 1 h. Also noted: species or system male Wistar rats. How it is done: Test C: In Vivo Acute Cholesterol Biosynthesis Inhibition in Rats:
Male Wistar rats (160-200 g, housed 2 per cage) were maintained on normal diet (Purina Rat Chow and water, ad libitum) for at least 7 days on a reversed lighting schedule (7:00 a.m. to 5:00 p.m. dark). Food was removed 15 hours prior to dosing. Compounds were administered at 8:00 a.m. by intragastric intubation using 0.5-1.0 mL of water or propylene glycol solutions of sodium salts, lactones, or esters of the test compounds. Controls received equal volumes of the vehicle.
Thirty minutes after receiving the test substances, rats were injected intraperitoneally with 0.9 mL of 0.9% NaCl containing approximately 120 μCi per kg body weight of sodium [1-^14 C] acetate (1-3 mCi/mmol). After a 60 minute incorporation period, rats were sacrificed and liver and blood samples were obtained. Aliquots of plasma (1.0 mL) obtained by centrifugation of heparin+EDTA-treated blood, and aliquots of liver homogenates (equivalent to 0.50 g liver wet weight) were taken for determination of radiolabeled 3β-hydroxy sterols. Sterol isolation for the liver samples followed the method of Kates as described above for the hepatocyte procedure (Test B) while the plasma samples were directly saponified followed by isolation of the digitonin-precipitable sterols. ^14 C-labelled sterols were quantified by liquid scintillation counting (efficiency corrected). Mean percent inhibition of ^14 C incorporated into liver and into plasma cholesterol were calculated for groups of treated animals and compared to mean values for controls conducted simultaneously.
Therefore, Test C provides information on the ability of test substances to suppress the de novo biosynthesis of cholesterol in vivo in rats with oral dosing.

Assay [3] relates to Isolated Hepatocyte Cholesterol Biosynthesis. The assay is described as follows: Test B: Isolated Hepatocyte Cholesterol Biosynthesis Assay. Type of assay: cell-based, male Wistar rats. Conditions: isolated rat hepatocytes, 10 min preincubation, 60 minutes at 37°, incorporation into sterols, read-out: Inhibition of Isolated Hepatocyte Cholesterol Biosynthesis IC50. How it is done: Test B: Isolated Hepatocyte Cholesterol Biosynthesis Assay:
Intact parenchymal hepatocytes were isolated from male Wistar rats (180-280 g) fed cholestyramine-containing or normal diet, using the collagenase perfusion method essentially as described by Seglen, in Methods in Cell Biology (D. Prescott, ed.) Vol. 13, pp. 29-83, Academic Press, New York (1976). Cell preparations were used only when viability (trypan blue exclusion) exceeded 90%. Cholesterol biosynthesis was determined as the incorporation by hepatocytes of ^3 H from [^3 H]-water into total (cellular plus medium) 3β-hydroxy sterols as per Ingebritsen, et al., J. Biol. Chem., 254, 9986-9989 (1979). Hepatocyte sterols and lipids were isolated by a modification of the methods described by Kates, in Techniques in Lipidology, (M. Kates, ed.), pp. 349, 360-363, North Holland Publ. Co., Amsterdam, 1972. […] The ^3 H-labelled sterols are quantified by liquid scintillation and corrected for counting efficiency. […]
Cells were preincubated for 10 minutes with or without aliquots of test compounds added as water solutions of sodium salts or as dimethylsulfoxide solutions of lactones. […] The IC50 for inhibition of sterol synthesis by test compounds which is shown in Table 2 was calculated from the linear regression curve of % inhibition (compared to controls) vs. log concentration using at least 4 concentrations of inhibitor. […]

Like-named read-outs stand apart in the source and are kept apart here. A value given as a limit tells only on which side of the number the result lay.

In turn, `CCOC(=O)C[C@H](O)C[C@H](O)/C=C/C(=C(c1ccc(F)cc1)c1ccc(F)cc1)c1nnnn1C` (relative stereo) [Example 11, Ethyl (±)-erythro-9,9-bis(4-fluorophenyl)-3,5-dihydroxy-8-(1-methyl-1H-tetrazol-5-yl)-6,8-nonadienoate] showed a 50% inhibitory concentration (IC50) in assay [1] above 330000 nM.

Take `Cn1nnnc1C(/C=C/[C@@H](O)C[C@@H](O)CC(=O)O)=C(c1ccc(F)cc1)c1ccc(F)cc1` (relative stereo) [Example 12, Sodium (±)-erythro-9,9-bis(4-fluorophenyl)-3,5-dihydroxy-8-(1-methyl-1H-tetrazol-5-yl)-6,8-nonadionate]: the half-maximal inhibitory concentration (IC50) amounted to 37 ± 10 nM in assay [1] and 23 ± 11 nM in assay [3]. The ED50 was determined as 0.08 mg/kg in assay [2] (read-out: 50% Inhibitory Dose (ED50), liver cholesterol, oral (intragastric), liver, 14C-acetate incorporation 60 minutes) and 0.08 mg/kg in assay [2] (read-out: 50% Inhibitory Dose (ED50), plasma cholesterol, oral (intragastric), plasma, 14C-acetate incorporation 60 minutes). The compound `Cn1nnnc1C(/C=C/[C@@H]1C[C@@H](O)CC(=O)O1)=C(c1ccc(F)cc1)c1ccc(F)cc1` (relative stereo) [Example 13, Trans-6-[4,4-bis(4-fluorophenyl)-3-(1-methyl-1H-tetrazol-5-yl)-1,3-butadienyl]-tetrahydro-4-hydroxy-2H-pyran-2-one] had an IC50 in assay [1] of 1090 ± 290 nM. In the case of `Cn1nnnc1C(/C=C/C=C/[C@@H](O)C[C@@H](O)CC(=O)O)=C(c1ccc(F)cc1)c1ccc(F)cc1` (relative stereo) [Example 15, Sodium (±)-erythro-11,11-bis(4-fluorophenyl)-3,5-dihydroxy-10-(1-methyl-1H-tetrazol-5-yl)-6,8,10-undecatrienoate], inhibition in assay [1] was half-maximal at 5700 nM (IC50). `CC[C@H](C)C(=O)O[C@H]1C[C@@H](C)C=C2C=C[C@H](C)[C@H](CC[C@@H]3C[C@@H](O)CC(=O)O3)[C@H]21` [Mevinolin (Lovastatin), reference compound]: the ED50 in assay [2] (oral (intragastric), 14C-acetate incorporation 60 minutes, read-out: ED50 value (reference agent, tissue not stated)) was found to be 0.04 mg/kg. The IC50 in assay [3] turned out to be 46 ± 26 nM.
